Laboratory results published in patent US20230085307A1, “PYRIDAZINONE COMPOUND AND HERBICIDE” (NISSAN CHEMICAL CORPORATION, priority 2019, published 2023).

How the values were obtained:
windgrass [1] = assay: Test Example 4: herbicidal effect by soil treatment (Table 19, symbol L); format: in vivo, windgrass (Apera spica-venti); details: amount of applied herbicide 320 g/ha
Summary of the method: (§1)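 Pre-emergence style soil spray: seeds under ~1.5 cm sterilized diluvial soil received a uniform coat of emulsion diluted to the predetermined herbicide amount. Greenhouse 25–30° C; readout at week three on previously defined criteria.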

persian speedwell [2] = assay: Test Example 4: herbicidal effect by soil treatment (Table 19, symbol R); format: in vivo, Persian speedwell (Veronica persica); details: amount of applied herbicide 320 g/ha
Summary of the method: as §1

windgrass [3] = assay: Test Example 5: herbicidal effect by foliage application, plastic box (Table 20, symbol L); format: in vivo, windgrass (Apera spica-venti); details: foliage application, 320 g/ha
Summary of the method: (§2)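 Plants were sown into sterilized diluvial soil under about 1.5 cm cover and kept in a greenhouse at 25° C. to 30° C. Fourteen days on, foliage received an even spray of the diluted emulsion. Herbicidal or crop effect was judged three weeks afterwards.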

barnyard grass [4] = assay: Test Example 3: herbicidal effect by foliage application, Wagner pot (Table 18, symbol H); format: in vivo, barnyard grass (Echinochloa crus-galli)
Summary of the method: (§3)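 Plants were sown in alluvial soil held under 0.1–0.5 cm standing water and grown 14 days in a greenhouse at 25–30 °C. An emulsifiable formulation, water-diluted to the set dose, was then sprayed onto the foliage, and effects were scored three weeks later using previously defined criteria.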

velvetleaf [5] = assay: Test Example 4: herbicidal effect by soil treatment (Table 19, symbol M); format: in vivo, velvetleaf (Abutilon theophrasti); details: amount of applied herbicide 320 g/ha
Summary of the method: as §1

green foxtail [6] = assay: Test Example 5: herbicidal effect by foliage application, plastic box (Table 20, symbol G); format: in vivo, green foxtail (Setaria viridis); details: foliage application, 320 g/ha
Summary of the method: as §2

wild oat [7] = assay: Test Example 4: herbicidal effect by soil treatment (Table 19, symbol I); format: in vivo, wild oat (Avena fatua); details: amount of applied herbicide 320 g/ha
Summary of the method: as §1

barnyard grass [8] = assay: Test Example 5: herbicidal effect by foliage application, plastic box (Table 20, symbol H); format: in vivo, barnyard grass (Echinochloa crus-galli); details: foliage application, 320 g/ha
Summary of the method: as §2

redroot pigweed [9] = assay: Test Example 4: herbicidal effect by soil treatment (Table 19, symbol N); format: in vivo, redroot pigweed (Amaranthus retroflexus); details: amount of applied herbicide 320 g/ha
Summary of the method: as §1

lambsquarters [10] = assay: Test Example 4: herbicidal effect by soil treatment (Table 19, symbol O); format: in vivo, lambsquarters (Chenopodium album); details: amount of applied herbicide 320 g/ha
Summary of the method: as §1

wild oat [11] = assay: Test Example 5: herbicidal effect by foliage application, plastic box (Table 20, symbol I); format: in vivo, wild oat (Avena fatua); details: foliage application, 320 g/ha
Summary of the method: as §2

southern crabgrass [12] = assay: Test Example 5: herbicidal effect by foliage application, plastic box (Table 20, symbol F); format: in vivo, southern crabgrass (Digitaria ciliaris); details: foliage application, 320 g/ha
Summary of the method: as §2

green foxtail [13] = assay: Test Example 4: herbicidal effect by soil treatment (Table 19, symbol G); format: in vivo, green foxtail (Setaria viridis); details: amount of applied herbicide 320 g/ha
Summary of the method: as §1

velvetleaf [14] = assay: Test Example 5: herbicidal effect by foliage application, plastic box (Table 20, symbol M); format: in vivo, velvetleaf (Abutilon theophrasti); details: foliage application, 320 g/ha
Summary of the method: as §2

Italian ryegrass [15] = assay: Test Example 5: herbicidal effect by foliage application, plastic box (Table 20, symbol K); format: in vivo, Italian ryegrass (Lolium multiflorum); details: foliage application, 320 g/ha
Summary of the method: as §2

persian speedwell [16] = assay: Test Example 5: herbicidal effect by foliage application, plastic box (Table 20, symbol R); format: in vivo, Persian speedwell (Veronica persica); details: foliage application, 320 g/ha
Summary of the method: as §2

redroot pigweed [17] = assay: Test Example 5: herbicidal effect by foliage application, plastic box (Table 20, symbol N); format: in vivo, redroot pigweed (Amaranthus retroflexus); details: foliage application, 320 g/ha
Summary of the method: as §2

blackgrass [18] = assay: Test Example 4: herbicidal effect by soil treatment (Table 19, symbol J); format: in vivo, blackgrass (Alopecurus myosuroides); details: amount of applied herbicide 320 g/ha
Summary of the method: as §1

Chinese sprangletop = assay: Test Example 3: herbicidal effect by foliage application, Wagner pot (Table 18, symbol D); format: in vivo, chinese sprangletop (Leptochloa chinensis)
Summary of the method: as §3

chickweed [19] = assay: Test Example 4: herbicidal effect by soil treatment (Table 19, symbol P); format: in vivo, common chickweed (Stellaria media); details: amount of applied herbicide 320 g/ha
Summary of the method: as §1

Italian ryegrass [20] = assay: Test Example 4: herbicidal effect by soil treatment (Table 19, symbol K); format: in vivo, Italian ryegrass (Lolium multiflorum); details: amount of applied herbicide 320 g/ha
Summary of the method: as §1

blackgrass [21] = assay: Test Example 5: herbicidal effect by foliage application, plastic box (Table 20, symbol J); format: in vivo, blackgrass (Alopecurus myosuroides); details: foliage application, 320 g/ha
Summary of the method: as §2

false cleavers [22] = assay: Test Example 5: herbicidal effect by foliage application, plastic box (Table 20, symbol Q); format: in vivo, false cleavers (Galium spurium); details: foliage application, 320 g/ha
Summary of the method: as §2

false cleavers [23] = assay: Test Example 4: herbicidal effect by soil treatment (Table 19, symbol Q); format: in vivo, false cleavers (Galium spurium); details: amount of applied herbicide 320 g/ha
Summary of the method: as §1

chickweed [24] = assay: Test Example 5: herbicidal effect by foliage application, plastic box (Table 20, symbol P); format: in vivo, common chickweed (Stellaria media); details: foliage application, 320 g/ha
Summary of the method: as §2

southern crabgrass [25] = assay: Test Example 4: herbicidal effect by soil treatment (Table 19, symbol F); format: in vivo, southern crabgrass (Digitaria ciliaris); details: amount of applied herbicide 320 g/ha
Summary of the method: as §1

rice flat sedge = assay: Test Example 3: herbicidal effect by foliage application, Wagner pot (Table 18, symbol E); format: in vivo, rice flat sedge (Cyperus iria)
Summary of the method: as §3

lambsquarters [26] = assay: Test Example 5: herbicidal effect by foliage application, plastic box (Table 20, symbol O); format: in vivo, lambsquarters (Chenopodium album); details: foliage application, 320 g/ha
Summary of the method: as §2

barnyard grass [27] = assay: Test Example 4: herbicidal effect by soil treatment (Table 19, symbol H); format: in vivo, barnyard grass (Echinochloa crus-galli); details: amount of applied herbicide 320 g/ha
Summary of the method: as §1

[28] = evaluated three weeks after application
[29] = amount of applied herbicide 320 g/ha

Structure (SMILES): CCCC(=O)Oc1c(C)nn(C)c(=O)c1-c1c(-c2cc(F)ccc2OC)sc2ccc(C)cc12 [2-151]
- L: windgrass, herbicidal effect rating (windgrass [1]): 0 (Herbicidal rate of 5% or less (almost no effect))
- R: persian speedwell, herbicidal effect rating (persian speedwell [2]): 3 (Herbicidal rate of 40% or more and less than 70%)
- herbicidal effect on L: windgrass (criteria 0-5) (windgrass [3]; [28]): 0 (Herbicidal rate of 5% or less (almost no effect))
- herbicidal effect on H: barnyard grass (barnyard grass [4]; [29]): 3 (Herbicidal rate of 40% or more and less than 70%)
- M: velvetleaf, herbicidal effect rating (velvetleaf [5]): 0 (Herbicidal rate of 5% or less (almost no effect))
- herbicidal effect on G: green foxtail (criteria 0-5) (green foxtail [6]; [28]): 0 (Herbicidal rate of 5% or less (almost no effect))
- I: wild oat, herbicidal effect rating (wild oat [7]): 0 (Herbicidal rate of 5% or less (almost no effect))
- herbicidal effect on H: barnyard grass (criteria 0-5) (barnyard grass [8]; [28]): 0 (Herbicidal rate of 5% or less (almost no effect))
- N: redroot pigweed, herbicidal effect rating (redroot pigweed [9]): 4 (Herbicidal rate of 70% or more and less than 90%)
- O: lambsquarters, herbicidal effect rating (lambsquarters [10]): 4 (Herbicidal rate of 70% or more and less than 90%)
- herbicidal effect on I: wild oat (criteria 0-5) (wild oat [11]; [28]): 0 (Herbicidal rate of 5% or less (almost no effect))
- herbicidal effect on F: southern crabgrass (criteria 0-5) (southern crabgrass [12]; [28]): 0 (Herbicidal rate of 5% or less (almost no effect))
- G: green foxtail, herbicidal effect rating (green foxtail [13]): 0 (Herbicidal rate of 5% or less (almost no effect))
- herbicidal effect on M: velvetleaf (criteria 0-5) (velvetleaf [14]; [28]): 1 (Herbicidal rate of 5% or more and less than 20%)
- herbicidal effect on K: Italian ryegrass (criteria 0-5) (Italian ryegrass [15]; [28]): 0 (Herbicidal rate of 5% or less (almost no effect))
- herbicidal effect on R: persian speedwell (criteria 0-5) (persian speedwell [16]; [28]): 4 (Herbicidal rate of 70% or more and less than 90%)
- herbicidal effect on N: redroot pigweed (criteria 0-5) (redroot pigweed [17]; [28]): 3 (Herbicidal rate of 40% or more and less than 70%)
- J: blackgrass, herbicidal effect rating (blackgrass [18]): 0 (Herbicidal rate of 5% or less (almost no effect))
- herbicidal effect on D: Chinese sprangletop (Chinese sprangletop; [29]): 0 (Herbicidal rate of 5% or less (almost no effect))
- P: chickweed, herbicidal effect rating (chickweed [19]): 1 (Herbicidal rate of 5% or more and less than 20%)
- K: Italian ryegrass, herbicidal effect rating (Italian ryegrass [20]): 0 (Herbicidal rate of 5% or less (almost no effect))
- herbicidal effect on J: blackgrass (criteria 0-5) (blackgrass [21]; [28]): 0 (Herbicidal rate of 5% or less (almost no effect))
- herbicidal effect on Q: false cleavers (criteria 0-5) (false cleavers [22]; [28]): 2 (Herbicidal rate of 20% or more and less than 40%)
- Q: false cleavers, herbicidal effect rating (false cleavers [23]): 0 (Herbicidal rate of 5% or less (almost no effect))
- herbicidal effect on P: chickweed (criteria 0-5) (chickweed [24]; [28]): 4 (Herbicidal rate of 70% or more and less than 90%)
- F: southern crabgrass, herbicidal effect rating (southern crabgrass [25]): 0 (Herbicidal rate of 5% or less (almost no effect))
- herbicidal effect on E: rice flat sedge (rice flat sedge; [29]): 3 (Herbicidal rate of 40% or more and less than 70%)
- herbicidal effect on O: lambsquarters (criteria 0-5) (lambsquarters [26]; [28]): 2 (Herbicidal rate of 20% or more and less than 40%)
- H: barnyard grass, herbicidal effect rating (barnyard grass [27]): 0 (Herbicidal rate of 5% or less (almost no effect))

Structure (SMILES): COc1ccc2c(-c3c(O)c(C)nn(C)c3=O)c(-c3ccc(F)cc3)sc2c1 [3-063]
- L: windgrass, herbicidal effect grade (windgrass [1]): 0 (Herbicidal rate of 5% or less (almost no effect))
- R: persian speedwell, herbicidal effect grade (persian speedwell [2]): 5 (Herbicidal rate of 90% or more (almost completely withered))
- L: windgrass, herbicidal effect grade (windgrass [3]; three weeks after application): 2 (Herbicidal rate of 20% or more and less than 40%)
- herbicidal effect on barnyard grass (H) (barnyard grass [4]; 320 g/ha): 0 (Herbicidal rate of 5% or less (almost no effect))
- M: velvetleaf, herbicidal effect grade (velvetleaf [5]): 2 (Herbicidal rate of 20% or more and less than 40%)
- G: green foxtail, herbicidal effect grade (green foxtail [6]; three weeks after application): 0 (Herbicidal rate of 5% or less (almost no effect))
- I: wild oat, herbicidal effect grade (wild oat [7]): 1 (Herbicidal rate of 5% or more and less than 20%)
- H: barnyard grass, herbicidal effect grade (barnyard grass [8]; three weeks after application): 0 (Herbicidal rate of 5% or less (almost no effect))
- N: redroot pigweed, herbicidal effect grade (redroot pigweed [9]): 3 (Herbicidal rate of 40% or more and less than 70%)
- O: lambsquarters, herbicidal effect grade (lambsquarters [10]): 5 (Herbicidal rate of 90% or more (almost completely withered))
- I: wild oat, herbicidal effect grade (wild oat [11]; three weeks after application): 2 (Herbicidal rate of 20% or more and less than 40%)
- F: southern crabgrass, herbicidal effect grade (southern crabgrass [12]; three weeks after application): 0 (Herbicidal rate of 5% or less (almost no effect))
- G: green foxtail, herbicidal effect grade (green foxtail [13]): 0 (Herbicidal rate of 5% or less (almost no effect))
- M: velvetleaf, herbicidal effect grade (velvetleaf [14]; three weeks after application): 5 (Herbicidal rate of 90% or more (almost completely withered))
- K: Italian ryegrass, herbicidal effect grade (Italian ryegrass [15]; three weeks after application): 3 (Herbicidal rate of 40% or more and less than 70%)
- R: persian speedwell, herbicidal effect grade (persian speedwell [16]; three weeks after application): 5 (Herbicidal rate of 90% or more (almost completely withered))
- N: redroot pigweed, herbicidal effect grade (redroot pigweed [17]; three weeks after application): 4 (Herbicidal rate of 70% or more and less than 90%)
- J: blackgrass, herbicidal effect grade (blackgrass [18]): 0 (Herbicidal rate of 5% or less (almost no effect))
- herbicidal effect on Chinese sprangletop (D) (Chinese sprangletop; 320 g/ha): 0 (Herbicidal rate of 5% or less (almost no effect))
- P: chickweed, herbicidal effect grade (chickweed [19]): 5 (Herbicidal rate of 90% or more (almost completely withered))
- K: Italian ryegrass, herbicidal effect grade (Italian ryegrass [20]): 0 (Herbicidal rate of 5% or less (almost no effect))
- J: blackgrass, herbicidal effect grade (blackgrass [21]; three weeks after application): 0 (Herbicidal rate of 5% or less (almost no effect))
- Q: false cleavers, herbicidal effect grade (false cleavers [22]; three weeks after application): 5 (Herbicidal rate of 90% or more (almost completely withered))
- Q: false cleavers, herbicidal effect grade (false cleavers [23]): 2 (Herbicidal rate of 20% or more and less than 40%)
- P: chickweed, herbicidal effect grade (chickweed [24]; three weeks after application): 5 (Herbicidal rate of 90% or more (almost completely withered))
- F: southern crabgrass, herbicidal effect grade (southern crabgrass [25]): 0 (Herbicidal rate of 5% or less (almost no effect))
- herbicidal effect on rice flat sedge (E) (rice flat sedge; 320 g/ha): 5 (Herbicidal rate of 90% or more (almost completely withered))
- O: lambsquarters, herbicidal effect grade (lambsquarters [26]; three weeks after application): 3 (Herbicidal rate of 40% or more and less than 70%)
- H: barnyard grass, herbicidal effect grade (barnyard grass [27]): 0 (Herbicidal rate of 5% or less (almost no effect))
